Results: patent US12319652B2, “Salts and solid forms of (R)-1-(5-methoxy-1H-indol-1-yl)-N,N-dimethylpropan-2-amine” (priority 2021, dated 2025)

How the values were obtained:
[1] = Solubility determinations in SIF buffers (FaSSIF, FeSSIF, FaSSGF); assay type: physicochemical
Experimental: At this stage ca. 1 g of each front-runner salt form was prepared. Salt forms that offered significant solubility and stability advantages over the non-ionized API were prioritized. […] Scale Up
The solubility of the salts below was determined in FaSSIF, FeSSIF and FaSSGF by reference to the calibration curve of amorphous compound 1.
Separate portions of compound 1 were weighed out into aluminum boats and were charged to the relevant volumetric flasks. Solutions were made to volume with 1 to 1 (v/v) acetonitrile/purified water to give calibrants of known API concentrations and analyzed by HPLC, suitable to determine the concentration of compound 1 free base in the SIF buffer solubility study.
Each sample (150 mg) was suspended in the relevant SIF buffer (5.0 ml), to give a concentration of 30 mg/ml and maintain at 37° C. for 24 h. The pH was adjusted using 1 M HCl or 1 M NaOH, to ensure that the suspension remains in range.
Sample (1 ml) of the well-stirred representative suspensions was obtained at 1 h, 3 h, 6 h and 24 h and the pH was recorded. The pH of the bulk suspension was re-adjusted when necessary. The obtained sample from each vial was centrifuged, and the supernatant was analysed by HPLC (note, the analyte was diluted, when outside of the calibration range); XRPD analysis was performed on the wet sample pellet for evidence of form change, as well as on the oven-dried pellet (undervacuum at 40° C.).

[2] = Dynamic vapor sorption (DVS); assay type: physicochemical
Experimental: There are two main methods to use, one is by time where the equilibration is given by a fixed time, i.e., 1 hour per step and is appropriate for an unknown phase. The second, is by mass per time unit (dm/dt) of 0.002%/min; that is when the difference in weight is less than 0.002%, the instrument moves onto the next step. For unknown hygroscopicity, the method by time is indicated because it gives an idea of water affinity without wasting much time. Ideally the analyses are repeated using the mass equilibration method to confirm. By experience for hygroscopic samples, the analysis can continue for days. For non-hygroscopic samples the difference between the two methods may not be significant.
Consequently, amorphous batch 1 was analyzed by the fixed time method and once compound 1 fumarate crystalline polymorphic Form A was generated the analyses was repeated as mass per unit time equilibrated @dm/dt ([…]) and is given below (refer to FIG. 12).
(§1) The moisture sorption properties of the feed API were analysed by DVS Intrinsic instrument (Surface Measurement System). Approximately 20 to 50 mg of API was weighed onto an aluminium pan and loaded into the instrument equilibrated at 25° C. The sample was equilibrated under a dry atmosphere (0% relative humidity) for 60 minutes, before increasing the humidity from 0% to 30% at 5%4 step increment and from 30% to 90% at 10% step increment. A desorption cycle was also applied from 90% to 30% (10% step decrement) and from 30% to 0% (5% step decrement). A rate of change in mass per time unit (dm/dt) of 0.002%/min was set as the equilibrium parameter. Kinetic and isotherm graphs were calculated.
Specimens were equilibrated at 0% RH for 60 min, prior to DVS analyses (stepped increment % RH up to 90% RH and stepped decrement % RH down to 0% RH.
as §1, with “5%” for “5%4”

[3] = assay type: physicochemical; conditions: 40° C./75% RH, 10-day time point
Experimental: Equilibrium Humidity Evaluation (40° C./75% RH for 10 Days)
100 mg portions of compound 1 salts (for inputs see table below) were placed in the relevant open vials. The powders were finely divided and distributed evenly over the base of the vial, such that equal material coverage across the panel was observed. These samples were then maintained 40°C. under 75% RH. The samples were sub-sampled at intervals of 5 and 10 days and analysed by ^1H NMR, HPLC, XRPD, DSC, TGA and PLM, for evidence of phase change or chemical degradation (FIG. 269-297).

Which “HPLC peak RRT 1.00 (Compound 1)” value ([1]; input salt before FaSSGF) does the source give for `COc1ccc2c(ccn2C[C@@H](C)N(C)C)c1.O=C(O)c1ccccc1` [Compound 1.Benzoate] here?
Its value is 99.64.

And the “HPLC peak RRT 1.09” value ([1]; input salt before FaSSGF)?
Its value is 0.03.

What about the “HPLC peak RRT 1.17” value ([1]; input salt before FaSSGF) of the same compound?
Its value is 0.03.

And the “HPLC peak RRT 1.18” value ([1]; input salt before FaSSGF)?
The value was 0.10.

And the “HPLC peak RRT 1.19” value ([1]; input salt before FaSSGF)?
Its value is 0.02.

And the “HPLC peak RRT 1.24” value ([1]; input salt before FaSSGF)?
The value was 0.06.

And the “HPLC peak RRT 1.28” value ([1]; input salt before FaSSGF)?
The value was 0.01.

And the “HPLC peak RRT 1.33” value ([1]; input salt before FaSSGF)?
Its value is 0.10.

What about the “HPLC peak RRT 0.90” value ([1]; t = 1 h in FaSSGF) of the same compound?
The value was 0.07.

And the “HPLC peak RRT 0.92” value ([1]; t = 1 h in FaSSGF)?
Its value is 0.05.

And the “HPLC peak RRT 1.00 (Compound 1)” value ([1]; t = 1 h in FaSSGF)?
The value was 99.28.

And the “HPLC peak RRT 1.07” value ([1]; t = 1 h in FaSSGF)?
Its value is 0.04.

What about the “HPLC peak RRT 1.09” value ([1]; t = 1 h in FaSSGF) of the same compound?
Its value is 0.06.

What about the “HPLC peak RRT 1.17” value ([1]; t = 1 h in FaSSGF) of the same compound?
The value was 0.04.

What about the “HPLC peak RRT 1.19” value ([1]; t = 1 h in FaSSGF) of the same compound?
Its value is 0.15.

And the “HPLC peak RRT 1.27” value ([1]; t = 1 h in FaSSGF)?
The value was 0.11.

And the “HPLC peak RRT 1.28” value ([1]; t = 1 h in FaSSGF)?
The value was 0.05.

And the “HPLC peak RRT 1.33” value ([1]; t = 1 h in FaSSGF)?
The value was 0.15.

What about the “HPLC peak RRT 0.97” value ([1]; t = 3 h in FaSSGF) of the same compound?
Its value is 0.04.

What about the “HPLC peak RRT 1.00 (Compound 1)” value ([1]; t = 3 h in FaSSGF) of the same compound?
Its value is 99.62.

What about the “HPLC peak RRT 1.07” value ([1]; t = 3 h in FaSSGF) of the same compound?
The value was 0.03.

And the “HPLC peak RRT 1.17” value ([1]; t = 3 h in FaSSGF)?
Its value is 0.15.

And the “HPLC peak RRT 1.33” value ([1]; t = 3 h in FaSSGF)?
Its value is 0.16.

And the “HPLC peak RRT 1.00 (Compound 1)” value ([1]; t = 6 h in FaSSGF)?
Its value is 99.61.

What about the “HPLC peak RRT 1.17” value ([1]; t = 6 h in FaSSGF) of the same compound?
The value was 0.12.

What about the “HPLC peak RRT 1.24” value ([1]; t = 6 h in FaSSGF) of the same compound?
Its value is 0.08.

And the “HPLC peak RRT 1.25” value ([1]; t = 6 h in FaSSGF)?
Its value is 0.04.

What about the “HPLC peak RRT 1.32” value ([1]; t = 6 h in FaSSGF) of the same compound?
Its value is 0.06.

What about the “HPLC peak RRT 1.33” value ([1]; t = 6 h in FaSSGF) of the same compound?
The value was 0.09.

What about the “HPLC peak RRT 1.00 (Compound 1)” value ([1]; t = 24 h in FaSSGF) of the same compound?
The value was 99.73.

What about the “HPLC peak RRT 1.17” value ([1]; t = 24 h in FaSSGF) of the same compound?
Its value is 0.15.

And the “HPLC peak RRT 1.32” value ([1]; t = 24 h in FaSSGF)?
The value was 0.07.

And the “HPLC peak RRT 1.33” value ([1]; t = 24 h in FaSSGF)?
The value was 0.06.

What does the source list for `COc1ccc2c(ccn2C[C@@H](C)N(C)C)c1.O=C(O)/C=C\C(=O)O` [compound 1 maleate]?
DVS isotherm uptake [2]: ca. 3.5 % w/w; DVS 0 to 90 to 0% RH (dm/dt <0.002%) ([2]; 0.0% RH, desorption): −0.07%; DVS 0 to 90 to 0% RH (dm/dt <0.002%) ([2]; 0.0% RH, sorption): DVS 0 to 90 to 0% RH (dm/dt <0.002%): 0.0 (0.00%), 5.0; DVS isotherm type / hygroscopicity ([2]; 0 to 90 to 0% RH): hygroscopic; DVS 0 to 90 to 0% RH (dm/dt <0.002%) ([2]; 5.0% RH, desorption): −0.03%; DVS 0 to 90 to 0% RH (dm/dt <0.002%) ([2]; 5.0% RH, sorption): 0.02%; DVS 0 to 90 to 0% RH (dm/dt <0.002%) ([2]; 10.0% RH, desorption): 0.03%; DVS 0 to 90 to 0% RH (dm/dt <0.002%) ([2]; 10.0% RH, sorption): 0.05%; DVS 0 to 90 to 0% RH (dm/dt <0.002%) ([2]; 15.0% RH, desorption): 0.09%; DVS 0 to 90 to 0% RH (dm/dt <0.002%) ([2]; 15.0% RH, sorption): 0.08%; DVS 0 to 90 to 0% RH (dm/dt <0.002%) ([2]; 20.0% RH, desorption): 0.15%; DVS 0 to 90 to 0% RH (dm/dt <0.002%) ([2]; 20.0% RH, sorption): 0.11%; DVS 0 to 90 to 0% RH (dm/dt <0.002%) ([2]; 25.0% RH, desorption): 0.22%; DVS 0 to 90 to 0% RH (dm/dt <0.002%) ([2]; 25.0% RH, sorption): 0.14%; DVS 0 to 90 to 0% RH (dm/dt <0.002%) ([2]; 30.0% RH, desorption): 0.30%; DVS 0 to 90 to 0% RH (dm/dt <0.002%) ([2]; 30.0% RH, sorption): 0.18%; DVS 0 to 90 to 0% RH (dm/dt <0.002%) ([2]; 40.0% RH, desorption): 0.48%; DVS 0 to 90 to 0% RH (dm/dt <0.002%) ([2]; 40.0% RH, sorption): 0.26%; DVS 0 to 90 to 0% RH (dm/dt <0.002%) ([2]; 50.0% RH, desorption): 0.70%; DVS 0 to 90 to 0% RH (dm/dt <0.002%) ([2]; 50.0% RH, sorption): 0.42%; DVS 0 to 90 to 0% RH (dm/dt <0.002%) ([2]; 60.0% RH, desorption): 1.00%; DVS 0 to 90 to 0% RH (dm/dt <0.002%) ([2]; 60.0% RH, sorption): 0.86%; DVS 0 to 90 to 0% RH (dm/dt <0.002%) ([2]; 70.0% RH, desorption): 1.40%; DVS 0 to 90 to 0% RH (dm/dt <0.002%) ([2]; 70.0% RH, sorption): 1.38%; DVS 0 to 90 to 0% RH (dm/dt <0.002%) ([2]; 80.0% RH, desorption): 2.03%; DVS 0 to 90 to 0% RH (dm/dt <0.002%) ([2]; 80.0% RH, sorption): 2.00%; DVS 0 to 90 to 0% RH (dm/dt <0.002%) ([2]; 90.0% RH, desorption): 3.44%; DVS 0 to 90 to 0% RH (dm/dt <0.002%) ([2]; 90.0% RH, sorption): 3.44%; DVS desorption behaviour (hysteresis) ([2]; during desorption): small hysteresis; Solubility in SIF buffers ([1]; FaSSIF, FeSSIF and FaSSGF, 37° C., 24 h, concentration tested 30 mg/ml): freely soluble; Change of purity profile / CP [3]: reduction in CP
